From ChEMBL document CHEMBL4699582, “Discovery of OATD-01, a First-in-Class Chitinase Inhibitor as Potential New Therapeutics for Idiopathic Pulmonary Fibrosis” (J Med Chem, 2020)
Activity calls are given as the source filed them. The calls are words filed in the database; no cut-off is given here.

Tests used:
[1] = Cmax in Sprague-Dawley rat at 6 mg/kg, po administered as single dose by LC-MS/MS analysis; assay type: ADME, organism-based; design: route oral, dose 6 mg/kg; details: in vivo
[2] = Oral bioavailability in Sprague-Dawley rat at 6 mg/kg, administered as single dose by LC-MS/MS analysis; assay type: ADME, organism-based; details: in vivo
Cytochrome P450 2C19 = Cytochrome P450 2C19 (Homo sapiens, UniProt P33261); assay: Inhibition of CYP2C19 (unknown origin); assay type: ADME
[3] = AUC (0 to 24 hrs) in Balb/c mouse at 3 mg/kg, iv administered as single bolus dose by LC-MS/MS analysis; assay type: ADME, organism-based; design: time < 24 hr, route intravenous, dose 3 mg/kg; details: in vivo
[4] = target: Broad substrate specificity ATP-binding cassette transporter ABCG2 (Homo sapiens, UniProt Q9UNQ0); assay: Inhibition of BCRP (unknown origin) at 1 to 10 uM; details: dose 1-10 µM
[5] = Elimination half-life in Sprague-Dawley rat at 6 mg/kg, po administered as single dose by LC-MS/MS analysis; assay type: ADME, organism-based; details: in vivo, read-out: beta t1/2 (converted)
[6] = Volume of distribution at steady state in Balb/c mouse at 3 mg/kg, iv administered as single bolus dose measured upto 24 hrs by LC-MS/MS analysis; assay type: ADME, organism-based; details: in vivo, read-out: Vdss
[7] = Drug uptake in C57BL/6N mouse lung at 30 mg/kg, po bid administered via gavage measured 24 hrs post dose; assay type: ADME, organism-based; details: in vivo
[8] = Clearance (0 to 24 hrs) in Beagle dog at 3 mg/kg, iv administered as single bolus dose by LC-MS/MS analysis; assay type: ADME, organism-based, Canis lupus familiaris; details: in vivo
[9] = target: Solute carrier family 22 member 6 (Homo sapiens, UniProt Q4U2R8); assay: Inhibition of OAT1 (unknown origin) at 1 to 10 uM; details: dose 1-10 µM
[10] = target: Voltage-gated inwardly rectifying potassium channel KCNH2 (Homo sapiens, UniProt Q12809); assay: Inhibition of tracer red binding to human ERG expressed in HEK293 cell membranes measured after 2 to 6 hrs by fluorescence polarization assay
[11] = Tmax in Beagle dog at 10 mg/kg, po administered as single dose by LC-MS/MS analysis; assay type: ADME, organism-based, Canis lupus familiaris; details: in vivo
[12] = Cmax in Beagle dog at 3 mg/kg, iv administered as single bolus dose by LC-MS/MS analysis; assay type: ADME, organism-based, Canis lupus familiaris; design: route intravenous, dose 3 mg/kg; details: in vivo
[13] = Initial plasma concentration in Balb/c mouse at 3 mg/kg, iv administered as single bolus dose by LC-MS/MS analysis; assay type: ADME, organism-based
Cytochrome P450 2B6 = Cytochrome P450 2B6 (Homo sapiens, UniProt P20813); assay: Inhibition of CYP2B6 (unknown origin); assay type: ADME
[14] = Dose normalized Cmax in Beagle dog at 10 mg/kg, po administered as single dose by LC-MS/MS analysis; assay type: ADME, organism-based, Canis lupus familiaris; details: in vivo
[15] = AUC (0 to 24 hrs) in Beagle dog at 10 mg/kg, po administered as single dose by LC-MS/MS analysis; assay type: ADME, organism-based, Canis lupus familiaris; design: time < 24 hr, route oral, dose 10 mg/kg; details: in vivo
[16] = target: Solute carrier organic anion transporter family member 1B1 (Homo sapiens, UniProt Q9Y6L6); assay: Inhibition of OATP1B1 (unknown origin) at 1 to 10 uM; details: dose 1-10 µM
[17] = Clearance (0 to infinity) in Balb/c mouse at 3 mg/kg, iv administered as single bolus dose by LC-MS/MS analysis; assay type: ADME, organism-based; details: in vivo
Cytochrome P450 2D6 = Cytochrome P450 2D6 (Homo sapiens, UniProt P10635); assay: Inhibition of CYP2D6 (unknown origin); assay type: ADME
[18] = In-vivo inhibition of CHIT1 in C57BL/6N mouse assessed as decrease in chitinolytic activity in plasma at 30 mg/kg, po qd administered via gavage measured up to 12 hrs relative to control; assay type: functional; details: time hrs <=12
[19] = Dose normalized Cmax in Beagle dog at 3 mg/kg, iv administered as single bolus dose by LC-MS/MS analysis; assay type: ADME, organism-based, Canis lupus familiaris; details: in vivo
[20] = Elimination half-life in Balb/c mouse at 10 mg/kg, po administered as single dose by LC-MS/MS analysis; assay type: ADME, organism-based; details: in vivo, read-out: beta t1/2 (converted)
[21] = AUC (0 to 24 hrs) in Sprague-Dawley rat at 6 mg/kg, po administered as single dose by LC-MS/MS analysis; assay type: ADME, organism-based; design: time < 24 hr, route oral, dose 6 mg/kg; details: in vivo
[22] = Dose normalized AUC (0 to 24 hrs) in Sprague-Dawley rat at 6 mg/kg, po administered as single dose by LC-MS/MS analysis; assay type: ADME, organism-based; details: in vivo
[23] = AUC (0 to 24 hrs) in Balb/c mouse at 10 mg/kg, po administered as single dose by LC-MS/MS analysis; assay type: ADME, organism-based; design: time < 24 hr, route oral, dose 10 mg/kg; details: in vivo
Mus musculus [24] = species: Mus musculus; details: C57BL/6N, dose 30.0 mg/kg
[25] = Elimination half-life in Balb/c mouse at 3 mg/kg, iv administered as single bolus dose by LC-MS/MS analysis; assay type: ADME, organism-based; details: in vivo, read-out: beta t1/2 (converted)
Mus musculus [26] = species: Mus musculus; details: C57BL/6N, dose 30.0 mg/kg; remark: listed apart in the source
Cytochrome P450 2C8 = Cytochrome P450 2C8 (Homo sapiens, UniProt P10632); assay: Inhibition of CYP2C8 (unknown origin); assay type: ADME
Chain of Cytochrome P450 2C8 (P10632 whole entry): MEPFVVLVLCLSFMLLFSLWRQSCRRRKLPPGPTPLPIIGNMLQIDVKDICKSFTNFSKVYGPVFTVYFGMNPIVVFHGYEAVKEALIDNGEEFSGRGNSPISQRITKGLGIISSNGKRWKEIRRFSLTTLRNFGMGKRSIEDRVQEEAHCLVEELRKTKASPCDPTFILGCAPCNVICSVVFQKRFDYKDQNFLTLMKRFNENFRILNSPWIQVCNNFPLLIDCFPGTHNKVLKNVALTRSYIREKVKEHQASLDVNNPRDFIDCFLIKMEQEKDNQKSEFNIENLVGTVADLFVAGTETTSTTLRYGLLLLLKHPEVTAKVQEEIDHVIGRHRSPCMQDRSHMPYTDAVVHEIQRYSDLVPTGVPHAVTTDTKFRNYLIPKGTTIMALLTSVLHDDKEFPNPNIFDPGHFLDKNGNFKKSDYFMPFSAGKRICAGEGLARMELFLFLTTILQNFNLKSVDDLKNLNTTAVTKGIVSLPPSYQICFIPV

Chain of Solute carrier organic anion transporter family member 1B1 (Q9Y6L6 whole entry): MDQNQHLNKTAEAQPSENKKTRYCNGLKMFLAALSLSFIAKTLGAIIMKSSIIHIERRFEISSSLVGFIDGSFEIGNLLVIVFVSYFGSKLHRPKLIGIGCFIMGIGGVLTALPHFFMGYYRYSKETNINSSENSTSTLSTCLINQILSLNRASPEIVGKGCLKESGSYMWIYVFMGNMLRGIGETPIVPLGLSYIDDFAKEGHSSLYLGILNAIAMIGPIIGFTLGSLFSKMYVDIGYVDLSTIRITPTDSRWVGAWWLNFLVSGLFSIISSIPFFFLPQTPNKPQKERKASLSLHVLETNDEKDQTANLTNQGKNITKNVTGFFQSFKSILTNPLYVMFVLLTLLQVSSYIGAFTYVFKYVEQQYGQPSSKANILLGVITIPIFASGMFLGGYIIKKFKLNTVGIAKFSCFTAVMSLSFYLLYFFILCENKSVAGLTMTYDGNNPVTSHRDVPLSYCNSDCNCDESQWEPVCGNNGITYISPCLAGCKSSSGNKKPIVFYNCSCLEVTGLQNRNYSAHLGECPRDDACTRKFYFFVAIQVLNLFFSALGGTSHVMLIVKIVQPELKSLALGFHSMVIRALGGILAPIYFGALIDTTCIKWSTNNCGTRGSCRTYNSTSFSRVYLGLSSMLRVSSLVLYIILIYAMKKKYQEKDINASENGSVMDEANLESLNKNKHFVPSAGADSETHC
Chain of Broad substrate specificity ATP-binding cassette transporter ABCG2 (Q9UNQ0 whole entry): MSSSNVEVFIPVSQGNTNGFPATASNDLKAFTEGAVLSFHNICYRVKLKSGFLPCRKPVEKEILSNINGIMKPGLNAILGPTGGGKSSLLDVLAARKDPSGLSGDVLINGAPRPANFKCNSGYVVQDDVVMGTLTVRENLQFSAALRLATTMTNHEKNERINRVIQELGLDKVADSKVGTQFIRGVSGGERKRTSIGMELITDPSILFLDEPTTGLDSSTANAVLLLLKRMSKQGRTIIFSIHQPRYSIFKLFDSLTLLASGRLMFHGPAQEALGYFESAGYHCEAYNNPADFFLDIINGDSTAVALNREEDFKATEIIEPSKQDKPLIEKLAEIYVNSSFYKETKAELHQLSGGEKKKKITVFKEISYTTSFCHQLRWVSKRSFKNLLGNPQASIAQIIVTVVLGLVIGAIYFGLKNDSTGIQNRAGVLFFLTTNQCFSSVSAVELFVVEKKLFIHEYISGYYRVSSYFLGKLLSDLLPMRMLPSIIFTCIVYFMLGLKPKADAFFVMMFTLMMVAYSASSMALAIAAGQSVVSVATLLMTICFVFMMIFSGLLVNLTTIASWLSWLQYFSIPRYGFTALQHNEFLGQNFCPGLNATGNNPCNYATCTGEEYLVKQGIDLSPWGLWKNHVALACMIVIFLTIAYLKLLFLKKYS
Chain of Voltage-gated inwardly rectifying potassium channel KCNH2 (Q12809 whole entry): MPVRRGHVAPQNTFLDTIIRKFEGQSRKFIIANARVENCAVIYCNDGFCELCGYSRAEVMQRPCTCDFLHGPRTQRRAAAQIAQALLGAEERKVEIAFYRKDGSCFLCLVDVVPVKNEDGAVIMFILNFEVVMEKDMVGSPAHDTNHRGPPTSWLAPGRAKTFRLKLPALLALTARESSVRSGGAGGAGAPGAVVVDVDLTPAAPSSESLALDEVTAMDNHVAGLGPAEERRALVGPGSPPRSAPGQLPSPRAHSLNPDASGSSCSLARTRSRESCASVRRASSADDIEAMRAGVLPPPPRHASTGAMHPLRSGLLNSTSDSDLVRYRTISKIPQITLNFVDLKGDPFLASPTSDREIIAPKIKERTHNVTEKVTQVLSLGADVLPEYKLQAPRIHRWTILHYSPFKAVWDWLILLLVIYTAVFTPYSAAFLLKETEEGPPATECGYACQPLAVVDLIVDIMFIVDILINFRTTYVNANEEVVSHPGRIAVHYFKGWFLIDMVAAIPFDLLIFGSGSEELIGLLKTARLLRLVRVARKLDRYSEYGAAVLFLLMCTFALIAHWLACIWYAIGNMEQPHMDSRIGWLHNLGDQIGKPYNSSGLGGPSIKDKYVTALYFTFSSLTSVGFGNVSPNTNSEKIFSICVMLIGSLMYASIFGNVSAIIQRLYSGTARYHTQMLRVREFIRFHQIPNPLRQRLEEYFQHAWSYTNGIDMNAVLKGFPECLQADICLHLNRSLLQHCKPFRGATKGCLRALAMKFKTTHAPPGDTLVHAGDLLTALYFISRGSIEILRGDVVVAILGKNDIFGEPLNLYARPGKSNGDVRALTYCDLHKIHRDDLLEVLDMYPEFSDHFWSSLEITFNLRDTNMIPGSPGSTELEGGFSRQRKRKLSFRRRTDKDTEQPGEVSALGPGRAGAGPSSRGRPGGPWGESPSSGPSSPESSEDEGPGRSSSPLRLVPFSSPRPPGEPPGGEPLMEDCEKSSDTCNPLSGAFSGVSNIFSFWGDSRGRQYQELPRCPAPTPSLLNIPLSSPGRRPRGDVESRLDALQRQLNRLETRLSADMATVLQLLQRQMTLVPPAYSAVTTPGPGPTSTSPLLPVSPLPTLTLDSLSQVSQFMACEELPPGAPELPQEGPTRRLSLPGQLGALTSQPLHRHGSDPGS
Chain of Cytochrome P450 2B6 (P20813 whole entry): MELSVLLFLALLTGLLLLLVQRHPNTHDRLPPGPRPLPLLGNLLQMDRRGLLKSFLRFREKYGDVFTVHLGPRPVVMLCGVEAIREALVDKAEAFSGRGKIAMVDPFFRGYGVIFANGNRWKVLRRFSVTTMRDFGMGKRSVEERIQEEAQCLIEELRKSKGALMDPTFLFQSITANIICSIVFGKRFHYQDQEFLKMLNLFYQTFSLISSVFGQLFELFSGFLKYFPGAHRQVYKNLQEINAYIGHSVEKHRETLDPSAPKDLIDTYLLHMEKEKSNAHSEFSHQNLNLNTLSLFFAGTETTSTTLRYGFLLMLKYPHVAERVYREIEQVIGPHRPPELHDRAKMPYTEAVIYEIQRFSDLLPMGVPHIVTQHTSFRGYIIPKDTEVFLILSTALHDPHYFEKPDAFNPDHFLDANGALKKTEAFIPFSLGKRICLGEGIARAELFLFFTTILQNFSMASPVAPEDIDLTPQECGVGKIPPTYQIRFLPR
Chain of Cytochrome P450 2C19 (P33261 whole entry): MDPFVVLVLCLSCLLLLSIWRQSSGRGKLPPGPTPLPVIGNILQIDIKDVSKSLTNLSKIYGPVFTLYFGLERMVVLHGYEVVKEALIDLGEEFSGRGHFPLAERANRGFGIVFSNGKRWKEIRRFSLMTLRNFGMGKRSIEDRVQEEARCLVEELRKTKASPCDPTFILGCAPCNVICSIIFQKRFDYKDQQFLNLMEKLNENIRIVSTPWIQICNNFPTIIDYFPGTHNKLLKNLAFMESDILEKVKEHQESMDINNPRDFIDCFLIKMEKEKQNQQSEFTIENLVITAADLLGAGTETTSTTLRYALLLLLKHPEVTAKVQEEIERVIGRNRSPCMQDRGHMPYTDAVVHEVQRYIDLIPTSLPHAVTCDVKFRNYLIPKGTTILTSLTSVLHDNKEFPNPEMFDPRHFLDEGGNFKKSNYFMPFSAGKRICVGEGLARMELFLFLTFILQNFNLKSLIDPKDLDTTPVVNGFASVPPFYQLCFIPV
Chain of Solute carrier family 22 member 6 (Q4U2R8 whole entry): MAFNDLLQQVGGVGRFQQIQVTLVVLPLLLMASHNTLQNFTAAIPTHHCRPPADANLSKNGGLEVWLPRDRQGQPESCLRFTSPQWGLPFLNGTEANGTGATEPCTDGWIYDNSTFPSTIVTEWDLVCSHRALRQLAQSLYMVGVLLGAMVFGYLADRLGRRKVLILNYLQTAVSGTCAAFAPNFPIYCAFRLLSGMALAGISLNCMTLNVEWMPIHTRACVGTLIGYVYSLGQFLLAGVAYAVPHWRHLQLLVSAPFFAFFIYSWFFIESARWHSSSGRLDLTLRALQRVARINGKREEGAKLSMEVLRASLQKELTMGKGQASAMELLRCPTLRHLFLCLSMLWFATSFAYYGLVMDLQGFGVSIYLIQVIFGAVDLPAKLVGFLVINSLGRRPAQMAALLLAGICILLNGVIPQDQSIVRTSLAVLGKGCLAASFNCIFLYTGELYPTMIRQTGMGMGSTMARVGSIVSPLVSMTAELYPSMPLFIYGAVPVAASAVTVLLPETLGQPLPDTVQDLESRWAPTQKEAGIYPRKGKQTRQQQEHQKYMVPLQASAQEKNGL
Chain of Cytochrome P450 2D6 (P10635 whole entry): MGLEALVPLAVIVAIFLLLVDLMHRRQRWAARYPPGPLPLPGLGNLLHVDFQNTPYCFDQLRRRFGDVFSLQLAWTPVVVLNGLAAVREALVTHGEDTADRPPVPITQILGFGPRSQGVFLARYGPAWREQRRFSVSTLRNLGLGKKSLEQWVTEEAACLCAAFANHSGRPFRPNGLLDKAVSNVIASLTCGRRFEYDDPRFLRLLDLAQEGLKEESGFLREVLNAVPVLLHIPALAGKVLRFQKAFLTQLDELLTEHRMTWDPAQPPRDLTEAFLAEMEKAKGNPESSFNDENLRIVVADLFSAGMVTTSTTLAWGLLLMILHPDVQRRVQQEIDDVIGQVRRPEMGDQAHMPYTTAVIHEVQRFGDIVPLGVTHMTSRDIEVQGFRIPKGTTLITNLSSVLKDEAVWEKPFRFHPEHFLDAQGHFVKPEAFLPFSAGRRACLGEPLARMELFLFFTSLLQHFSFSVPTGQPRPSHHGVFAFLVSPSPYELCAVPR

C[C@H]1CN(C2CCN(c3nc(N)n[nH]3)CC2)[C@@H](Cc2ccc(Cl)cc2)CO1 [5-(4-((2S,5S)-5-(4-CHLOROBENZYL)-2-METHYLMORPHOLINO)PIPERIDIN-1-YL)-1H-1,2,4-TRIAZOL-3-AMINE]
Cmax [1]: 2210 ng/mL | bioavailability [2]: 107% | inhibition (INH) (Cytochrome P450 2C19): Not Active | AUC(0-t) at 24 h [3]: 8600 ng·h/mL | inhibition (INH) [4]: Not Active | half-life [5]: 4.47 h | Vd [6]: 1.01 L/kg | Drug uptake [7]: Active | clearance [8]: 1.67 mL/min/kg | inhibition (INH) [9]: Not Active | IC50 [10]: 23 µM | Tmax [11]: 0.5 h | Cmax [12]: 2470 ng/mL | C0 [13]: 3970 ng/mL | inhibition (INH) (Cytochrome P450 2B6): Not Active | Cmax/dose [14]: 0.76 kg.mg/L.mL | AUC(0-t) at 24 h [15]: 94100 ng·h/mL | inhibition (INH) [16]: Not Active | clearance [17]: 5.83 mL/min/kg | inhibition (INH) (Cytochrome P450 2D6): Not Active | inhibition in vivo at 30 mg/kg [18]: 70% | Cmax/dose [19]: 0.82 kg.mg/L.mL | half-life [20]: 1.88 h | AUC(0-t) at 24 h [21]: 20300 ng·h/mL | AUC/dose [22]: 3.38 kg·mg·h/L/mg | AUC(0-t) at 24 h [23]: 22200 ng·h/mL | inhibition (Mus musculus [24]): Active | half-life [25]: 2.09 h | inhibition (Mus musculus [26]): Active | inhibition (INH) (Cytochrome P450 2C8): Not Active
